Like-named read-outs stand apart in the source and are kept apart here.
Assays:
EGFR L858R = target: T1, EGFR L858R (Homo sapiens, UniProt P00533, L858R); assay: Inhibition of EGFR L858R biochemical enzymatic activity (HTRF); conditions: 1 mM ATP
T1 construct: purchased Carna Bio
Summary of the method: (§1)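 Using a high ATP level (1 mM), wild-type and mutant EGFR enzymes were incubated 1 h at room temperature with inhibitor and 1 μM biotinylated TK substrate. Phosphorylation was quantified as the 665/615 nm HTRF ratio. IC50s were derived by logistic fitting.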

[1] = tested on: Ba/F3 cells expressing EGFR mutations; assay: Cell proliferation assay, Ba/F3 cells expressing EGFR mutations (CellTiter-Glo, 72 hours); assay type: cell-based
Summary of the method: (§2)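 Seed Ba/F3 at 5000 cells/well and PC-9 at 500 cells/well (10% FBS RPMI1640); incubate overnight; add compound dilution series; read a G0 plate; incubate; read G3; GI50 from best-fit curve.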

EGFR L858R/T790M = target: T2, EGFR L858R/T790M (Homo sapiens, UniProt P00533, L858R/T790M); assay: Inhibition of EGFR L858R/T790M biochemical enzymatic activity (HTRF); conditions: 1 mM ATP
T2 construct: purchased Carna Bio
T2 sequence (P00533 25-1210 T790M/L858R): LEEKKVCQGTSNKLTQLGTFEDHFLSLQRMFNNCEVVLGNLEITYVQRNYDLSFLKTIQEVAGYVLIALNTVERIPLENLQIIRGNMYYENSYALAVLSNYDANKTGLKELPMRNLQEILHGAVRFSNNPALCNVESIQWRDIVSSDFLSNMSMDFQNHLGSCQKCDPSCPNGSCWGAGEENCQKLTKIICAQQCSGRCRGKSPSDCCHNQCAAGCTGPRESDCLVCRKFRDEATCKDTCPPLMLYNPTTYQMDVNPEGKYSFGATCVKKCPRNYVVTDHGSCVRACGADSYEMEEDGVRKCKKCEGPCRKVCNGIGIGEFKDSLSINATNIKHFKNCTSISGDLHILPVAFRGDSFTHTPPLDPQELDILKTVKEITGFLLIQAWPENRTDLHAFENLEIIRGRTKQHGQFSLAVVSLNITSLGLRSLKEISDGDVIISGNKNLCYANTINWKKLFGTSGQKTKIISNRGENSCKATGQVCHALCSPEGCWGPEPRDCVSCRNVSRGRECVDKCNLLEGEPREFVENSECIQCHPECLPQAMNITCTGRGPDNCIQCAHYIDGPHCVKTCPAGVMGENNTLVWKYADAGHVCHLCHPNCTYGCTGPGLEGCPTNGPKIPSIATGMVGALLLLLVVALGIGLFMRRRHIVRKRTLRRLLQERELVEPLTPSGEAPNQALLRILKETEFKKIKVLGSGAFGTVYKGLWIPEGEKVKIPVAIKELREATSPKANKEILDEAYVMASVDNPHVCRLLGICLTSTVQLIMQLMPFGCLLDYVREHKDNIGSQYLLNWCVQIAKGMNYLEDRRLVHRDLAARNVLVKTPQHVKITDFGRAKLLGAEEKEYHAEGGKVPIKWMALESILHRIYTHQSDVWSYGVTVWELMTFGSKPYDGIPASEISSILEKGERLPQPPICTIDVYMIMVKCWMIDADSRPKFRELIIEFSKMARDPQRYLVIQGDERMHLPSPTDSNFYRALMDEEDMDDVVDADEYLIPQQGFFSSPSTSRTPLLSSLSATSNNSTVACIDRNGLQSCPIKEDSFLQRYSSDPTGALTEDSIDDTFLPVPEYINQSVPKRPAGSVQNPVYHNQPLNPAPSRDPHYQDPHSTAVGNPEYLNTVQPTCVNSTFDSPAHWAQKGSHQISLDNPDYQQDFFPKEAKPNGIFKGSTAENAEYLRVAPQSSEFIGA
Summary of the method: as §1

EGFR wild type = target: T3, EGFR wild type (Homo sapiens, UniProt P00533); assay: Inhibition of EGFR wild type biochemical enzymatic activity (HTRF); conditions: 1 mM ATP
T3 construct: purchased Carna Bio
Summary of the method: as §1

PC-9 = assay: Cell proliferation assay, PC-9 cells (CellTiter-Glo, 72 hours); assay type: cell-based; conditions: PC9 cells, read-out: GI50 PC9
Summary of the method: as §2

EGFR Exon19Del/T790M = target: T4, EGFR Exon19Del/T790M (Homo sapiens, UniProt P00533, DEL746-750/T790M); assay: Inhibition of EGFR Exon19Del/T790M biochemical enzymatic activity (HTRF); conditions: 1 mM ATP
T4 construct: purchased Carna Bio
Summary of the method: as §1

A-431 = assay: Cell proliferation assay, A-431 cells (GI50, Table 6); assay type: cell-based
EGFR Exon19Del = target: T5, EGFR Exon19Del (Homo sapiens, UniProt P00533, DEL746-750); assay: Inhibition of EGFR Exon19Del biochemical enzymatic activity (HTRF); conditions: read-out: IC50 @Del19
T5 construct: purchased Carna Bio
T5 sequence (P00533 with tags, fused parts or gaps DEL746-750 limits assumed): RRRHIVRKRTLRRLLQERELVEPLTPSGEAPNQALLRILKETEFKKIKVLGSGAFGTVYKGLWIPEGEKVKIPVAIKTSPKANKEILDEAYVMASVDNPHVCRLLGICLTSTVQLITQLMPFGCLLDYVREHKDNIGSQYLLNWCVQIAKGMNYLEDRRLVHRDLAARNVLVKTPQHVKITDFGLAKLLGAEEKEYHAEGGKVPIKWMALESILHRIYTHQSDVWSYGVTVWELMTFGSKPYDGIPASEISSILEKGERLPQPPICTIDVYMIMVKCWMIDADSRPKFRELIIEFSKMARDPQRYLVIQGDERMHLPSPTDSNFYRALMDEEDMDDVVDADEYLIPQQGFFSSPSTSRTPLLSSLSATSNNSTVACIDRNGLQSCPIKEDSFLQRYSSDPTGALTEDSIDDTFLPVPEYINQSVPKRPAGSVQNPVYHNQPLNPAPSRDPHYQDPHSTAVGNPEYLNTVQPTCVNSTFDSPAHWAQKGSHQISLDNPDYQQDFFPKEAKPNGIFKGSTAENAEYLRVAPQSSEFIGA
Summary of the method: as §1

EGFR (C797S L858R) = target: T6, EGFR (C797S L858R) (Homo sapiens, UniProt P00533, C797S/L858R); assay: Inhibition of EGFR (C797S L858R) biochemical enzymatic activity (HTRF); conditions: 1 mM ATP
T6 construct: purchased signalchem
T6 sequence (P00533 25-1210 C797S/L858R): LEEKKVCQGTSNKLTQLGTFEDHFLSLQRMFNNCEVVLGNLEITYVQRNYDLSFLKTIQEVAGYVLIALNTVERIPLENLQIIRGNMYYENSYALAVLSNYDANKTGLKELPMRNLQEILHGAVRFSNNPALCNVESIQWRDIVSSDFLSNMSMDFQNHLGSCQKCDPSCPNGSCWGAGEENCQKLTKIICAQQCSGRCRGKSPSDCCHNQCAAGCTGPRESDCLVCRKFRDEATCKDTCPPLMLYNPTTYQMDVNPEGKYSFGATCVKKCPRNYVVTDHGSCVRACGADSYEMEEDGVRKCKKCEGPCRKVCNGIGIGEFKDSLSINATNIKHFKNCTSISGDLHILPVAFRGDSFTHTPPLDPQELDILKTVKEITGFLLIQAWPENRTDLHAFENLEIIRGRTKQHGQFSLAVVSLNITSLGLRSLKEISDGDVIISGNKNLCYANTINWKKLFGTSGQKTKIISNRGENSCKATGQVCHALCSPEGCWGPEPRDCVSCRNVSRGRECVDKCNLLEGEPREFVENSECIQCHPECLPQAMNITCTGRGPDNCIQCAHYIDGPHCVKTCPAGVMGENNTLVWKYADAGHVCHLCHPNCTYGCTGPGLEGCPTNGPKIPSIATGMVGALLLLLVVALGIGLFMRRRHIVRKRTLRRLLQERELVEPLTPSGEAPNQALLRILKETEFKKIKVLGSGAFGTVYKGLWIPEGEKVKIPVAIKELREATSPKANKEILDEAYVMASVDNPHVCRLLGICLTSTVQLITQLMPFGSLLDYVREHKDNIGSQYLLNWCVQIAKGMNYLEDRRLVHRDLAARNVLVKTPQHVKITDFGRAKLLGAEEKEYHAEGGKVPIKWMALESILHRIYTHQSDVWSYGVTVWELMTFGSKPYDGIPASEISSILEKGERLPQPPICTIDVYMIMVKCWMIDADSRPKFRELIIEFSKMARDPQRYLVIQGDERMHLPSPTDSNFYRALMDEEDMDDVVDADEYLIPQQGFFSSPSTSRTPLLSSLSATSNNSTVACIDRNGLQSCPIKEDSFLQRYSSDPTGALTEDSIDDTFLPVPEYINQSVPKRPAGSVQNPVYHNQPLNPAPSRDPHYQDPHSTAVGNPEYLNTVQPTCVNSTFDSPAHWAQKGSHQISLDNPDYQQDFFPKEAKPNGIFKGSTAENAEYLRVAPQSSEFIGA
Summary of the method: as §1

[2] = target: T7, EGFR[T790M/C797S/d746-750] (Homo sapiens, UniProt P00533, C797S/DEL746-750/T790M); assay: Inhibition of EGFR[T790M/C797S/d746-750] biochemical enzymatic activity (HTRF)
T7 construct: purchased Carna Bio
Summary of the method: as §1

EGFR (d746-750 C797S) = target: T8, EGFR (d746-750 C797S) (Homo sapiens, UniProt P00533, C797S/DEL746-750); assay: Inhibition of EGFR (d746-750 C797S) biochemical enzymatic activity (HTRF); conditions: 1 mM ATP
T8 construct: purchased signalchem
T8 sequence (P00533 with tags, fused parts or gaps DEL746-750/C797S limits assumed): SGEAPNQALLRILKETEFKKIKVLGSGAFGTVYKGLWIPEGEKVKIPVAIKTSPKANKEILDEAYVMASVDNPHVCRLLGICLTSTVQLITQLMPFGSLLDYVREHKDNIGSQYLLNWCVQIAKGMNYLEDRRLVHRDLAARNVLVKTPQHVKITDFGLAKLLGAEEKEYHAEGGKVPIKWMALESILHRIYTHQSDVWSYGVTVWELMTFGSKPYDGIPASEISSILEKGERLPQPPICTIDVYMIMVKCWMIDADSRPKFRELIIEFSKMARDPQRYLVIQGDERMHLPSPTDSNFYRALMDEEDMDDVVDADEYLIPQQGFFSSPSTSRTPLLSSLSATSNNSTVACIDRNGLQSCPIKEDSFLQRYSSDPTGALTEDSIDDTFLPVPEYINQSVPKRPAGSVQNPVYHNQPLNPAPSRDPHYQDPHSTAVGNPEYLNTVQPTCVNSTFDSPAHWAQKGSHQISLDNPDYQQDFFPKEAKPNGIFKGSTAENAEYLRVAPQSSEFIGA
Summary of the method: as §1

EGFR[T790M/C797S/L858R] = target: T9, EGFR[T790M/C797S/L858R] (Homo sapiens, UniProt P00533, C797S/L858R/T790M); assay: Inhibition of EGFR[T790M/C797S/L858R] biochemical enzymatic activity (HTRF); conditions: 1 mM ATP
T9 construct: purchased Carna Bio
T9 sequence (P00533 25-1210 T790M/C797S/L858R): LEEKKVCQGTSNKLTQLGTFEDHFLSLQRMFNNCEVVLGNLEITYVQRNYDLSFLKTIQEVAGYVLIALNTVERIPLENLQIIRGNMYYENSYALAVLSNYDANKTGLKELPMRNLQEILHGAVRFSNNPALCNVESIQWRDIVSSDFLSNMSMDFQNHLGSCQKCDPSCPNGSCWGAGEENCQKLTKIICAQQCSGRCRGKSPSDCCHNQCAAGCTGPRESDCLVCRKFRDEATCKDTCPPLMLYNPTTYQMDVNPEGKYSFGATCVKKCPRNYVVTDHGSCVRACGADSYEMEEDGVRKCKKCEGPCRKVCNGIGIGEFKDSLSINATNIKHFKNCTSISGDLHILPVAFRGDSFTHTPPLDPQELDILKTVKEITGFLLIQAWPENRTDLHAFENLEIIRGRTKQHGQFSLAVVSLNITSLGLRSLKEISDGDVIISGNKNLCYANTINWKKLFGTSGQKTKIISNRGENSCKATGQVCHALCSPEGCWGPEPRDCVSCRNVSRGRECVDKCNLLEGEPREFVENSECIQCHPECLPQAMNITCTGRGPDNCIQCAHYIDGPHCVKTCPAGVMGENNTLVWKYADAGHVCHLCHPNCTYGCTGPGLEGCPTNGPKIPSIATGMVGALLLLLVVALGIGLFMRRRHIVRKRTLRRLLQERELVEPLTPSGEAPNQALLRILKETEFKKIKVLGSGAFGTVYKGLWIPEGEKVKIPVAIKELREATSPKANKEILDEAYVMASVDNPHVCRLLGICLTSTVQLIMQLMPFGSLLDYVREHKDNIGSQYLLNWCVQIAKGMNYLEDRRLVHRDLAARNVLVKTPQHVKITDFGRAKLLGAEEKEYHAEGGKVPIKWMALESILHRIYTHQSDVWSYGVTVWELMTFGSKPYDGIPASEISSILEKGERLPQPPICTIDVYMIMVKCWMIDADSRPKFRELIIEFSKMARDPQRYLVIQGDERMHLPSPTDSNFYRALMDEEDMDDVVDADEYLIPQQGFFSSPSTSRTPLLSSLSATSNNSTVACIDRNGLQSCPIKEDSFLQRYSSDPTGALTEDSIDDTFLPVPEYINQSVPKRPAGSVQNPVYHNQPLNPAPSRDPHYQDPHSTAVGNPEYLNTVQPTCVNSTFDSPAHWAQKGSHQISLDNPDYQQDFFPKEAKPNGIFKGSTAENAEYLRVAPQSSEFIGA
Summary of the method: as §1

[3] = Mus musculus, BaF3, 72 h, BaF3 cells, EGFR DEL19 - C797S, read-out: GI50 DEL19 - C797S/BaF3
[4] = Mus musculus, BaF3, 72 h, BaF3 cells, EGFR DEL19 - T790-C797S, read-out: GI50 DEL19 - T790-C797S/BaF3
[5] = Mus musculus, BaF3, 72 h, BaF3 cells, EGFR L858R - C797S, read-out: GI50 L858R - C797S/BaF3
[6] = Mus musculus, BaF3, 72 h, BaF3 cells, EGFR L858R - T790-C797S, read-out: GI50 L858R - T790-C797S/BaF3
[7] = Mus musculus, BaF3, 72 h, BaF3 cells, EGFR L858R - T790M, read-out: GI50 L858R - T790M/BaF3
[8] = Mus musculus, BaF3, 72 h, BaF3 cells, EGFR L858R, read-out: GI50 L858R/BaF3
[9] = Mus musculus, BaF3, 72 h, EGFR DEL19 - T790M, read-out: GI50 DEL19 - T790M
[10] = Homo sapiens, A-431, A-431 cells
[11] = 1 h at room temperature, read-out: IC50 @L858R
[12] = BaF3 cells, EGFR DEL19 - C797S, read-out: GI50 DEL19 - C797S/BaF3
[13] = BaF3 cells, EGFR DEL19 - T790-C797S, read-out: GI50 DEL19 - T790-C797S/BaF3
[14] = BaF3 cells, EGFR L858R - C797S, read-out: GI50 L858R - C797S/BaF3
[15] = BaF3 cells, EGFR L858R - T790-C797S, read-out: GI50 L858R - T790-C797S/BaF3
[16] = BaF3 cells, EGFR L858R - T790M, read-out: GI50 L858R - T790M/BaF3
[17] = BaF3 cells, EGFR L858R, read-out: GI50 L858R/BaF3
[18] = EGFR DEL19 - T790M, read-out: GI50 DEL19 - T790M
[19] = EGFR L858R/T790M, 1 h at room temperature, read-out: IC50 @L858R-T790M
[20] = EGFR wild type, 1 h at room temperature, read-out: IC50 @WT
[21] = EGFR Exon19Del/T790M, 1 h at room temperature, read-out: IC50 @Del19-T790M
[22] = EGFR Exon19Del, 1 mM ATP, 1 h at room temperature
[23] = EGFR (C797S L858R), 1 h at room temperature, read-out: IC50 @L858-C797S
[24] = EGFR[T790M/C797S/d746-750], 1 mM ATP, 1 h at room temperature, read-out: IC50 @T790M - C797S - Del19
[25] = EGFR (d746-750 C797S), 1 h at room temperature, read-out: IC50 @Del19-C797S
[26] = EGFR[T790M/C797S/L858R], 1 h at room temperature, read-out: IC50 @T790M- C797S - L858R

Row | Compound | GI50 [1, 3] | GI50 [1, 4] | GI50 (A-431; [10]) | IC50 (EGFR L858R; [11]) | GI50 [1, 12] | GI50 [1, 13] | GI50 [1, 14] | GI50 [1, 15] | GI50 [1, 16] | GI50 [1, 17] | GI50 [1, 18] | IC50 (EGFR L858R/T790M; [19]) | IC50 (EGFR wild type; [20]) | GI50 (PC-9) | IC50 (EGFR Exon19Del/T790M; [21]) | IC50 (EGFR Exon19Del; [22]) | IC50 (EGFR (C797S L858R); [23]) | IC50 [2, 24] | IC50 (EGFR (d746-750 C797S); [25]) | IC50 (EGFR[T790M/C797S/L858R]; [26]) | other results
1 | CN1CCN(c2ccc3nc4n(c3c2)C(C)(C)CCCCOc2c(cnn2C)-c2cc(cn(C)c2=O)C(=O)N4)CC1 [Example A112, 5,12,12,26-Tetramethyl-16-(4-methylpiperazin-1-yl)-7-oxa-4,5,13,20,22,26-hexaazapentacyclo[22.3.1.0^{2,6}.0^{13,21}.0^{14,19}]octacosa-1(28),2(6),3,14,16,18,20,24-octaene-23,27-dione] | 4.5 nM | 70 nM | 3590 nM | – | – | – | – | – | – | – | – | – | – | – | – | – | – | – | – | – | IC50 (EGFR L858R; 1 h, room temperature, read-out: IC50 (nM) @L858R): 198 nM; GI50 [1, 5]: 47 nM; GI50 [1, 6]: 64 nM; GI50 [1, 7]: 37 nM; GI50 [1, 8]: 89 nM; GI50 [1, 9]: 105 nM; IC50 (EGFR L858R/T790M; EGFR L858R-T790M, 1 h, room temperature, read-out: IC50 (nM) @L858R-T790M): 133 nM; IC50 (EGFR wild type; EGFR WT, 1 h, room temperature, read-out: IC50 (nM) @WT): > 5000 nM; GI50 (PC-9; Homo sapiens, PC-9, 72 h): 45 nM; IC50 (EGFR Exon19Del/T790M; EGFR Del19-T790M, 1 h, room temperature, read-out: IC50 (nM) @Del19-T790M): 15 nM; IC50 (EGFR Exon19Del; EGFR Del19, 1 mM ATP, 1 h, room temperature): 8.5 nM; IC50 (EGFR (C797S L858R); EGFR L858-C797S, 1 h, room temperature, read-out: IC50 (nM) @L858-C797S): 60 nM; IC50 ([2]; EGFR T790M-C797S-Del19, 1 mM ATP, 1 h, room temperature, read-out: IC50 (nM) @T790M - C797S - Del19): 12 nM; IC50 (EGFR (d746-750 C797S); EGFR Del19-C797S, 1 h, room temperature, read-out: IC50 (nM) @Del19-C797S): 6.6 nM; IC50 (EGFR[T790M/C797S/L858R]; EGFR T790M-C797S-L858R, 1 h, room temperature, read-out: IC50 (nM) @T790M- C797S - L858R): 52 nM
2 | Cc1cc2cc(n1)-c1cnn(C)c1OCCN1CC3CCC(C3)(C1)n1c(nc3ccc(N4CCN(C5CC5)CC4)cc31)NC2=O (single isomer, unassigned) [Example B55A] | – | – | – | > 5000 nM | 549 nM | 638 nM | 2560 nM | 350 nM | 939 nM | 4180 nM | 1100 nM | > 5000 nM | > 5000 nM | 1930 nM | > 5000 nM | > 5000 nM | > 5000 nM | 2740 nM | > 5000 nM | > 5000 nM | GI50 (A-431; A-431 cells): 7540 nM
3 | Cc1cc2cc(n1)-c1cnn(C)c1OCCN1CC3CCC(C3)(C1)n1c(nc3ccc(N4CCC(N5CCOCC5)C4)cc31)NC2=O (single isomer, unassigned) [Example B44B] | – | – | 929 nM | 170 nM | 2 nM | 2 nM | 12 nM | 2 nM | 2 nM | 15 nM | 2 nM | 13 nM | > 5000 nM | 13 nM | 6.4 nM | 18 nM | 50 nM | 4.3 nM | 8.1 nM | 4.9 nM | –
4 | Cc1cc2cc(n1)-c1cnn(C)c1OCCN1CC3CCC(C3)(C1)n1c(nc3ccc(N4CCN(C(C)C)CC4)cc31)NC2=O (single isomer, unassigned) [Example B57B] | – | – | 257 nM | 31 nM | 2 nM | 2 nM | 8 nM | 2 nM | 2 nM | 9 nM | 2 nM | 3.7 nM | 543 nM | 8 nM | 4.3 nM | 6.1 nM | 6 nM | 2.6 nM | 2.1 nM | 1.8 nM | –
5 | Cc1cc2cc(n1)-c1cnn(C)c1OCCN1CC3CCC(CC3)(C1)n1c(nc3ccc(N4CC[C@H](N(C)C)C4)cc31)NC2=O [Example B28] | 17 nM | 5 nM | 7810 nM | 320 nM | – | – | – | – | – | – | – | 17 nM | > 5000 nM | – | 9.5 nM | 23 nM | 145 nM | 7.8 nM | 14 nM | 5.9 nM | GI50 [1, 5]: 116 nM; GI50 [1, 6]: 11 nM; GI50 [1, 7]: 34 nM; GI50 [1, 8]: 85 nM; GI50 [1, 9]: 5 nM; GI50 (PC-9; Homo sapiens, PC-9, 72 h): 98 nM

Reference: US20260365670A1, “EGFR INHIBITORS AND USES THEREOF” (DIZAL (JIANGSU) PHARMACEUTICAL CO., LTD., priority 2022, published 2026)
